Laboratory results from US10525139B2, “Folate-conjugated molecules for delivery of toxic small molecule inhibitors to cancer cells and methods of use” (priority 2014, dated 2020).
“Also recorded” adds a separate entry of the source.

How the values were obtained:
[1] = system: NOTCH1 L1601P ΔPEST T-ALL; test: Syngeneic T-ALL mouse model carrying NOTCH1 L1601P ΔPEST; type: in vivo
Protocol: Viability data is represented as percentage relative to vehicle treatment and errors bars denote mean±SD of 3 replicates. Statistical significance of treated vs. vehicle (DMSO) samples (***P≤0.01; ***P≤0.001) was determined by one-way ANOVA with Bonferroni's correction for multiple comparison testing. […] The immunoblot contains cell lysates stained with anti-ICN1 antibody (Val1744) after treatment with the 10 μM of JQ-FT for 24 hours in vitro. GAPDH was used as a loading control ICN1 loss was quantified and bar graph (panel e) corresponds to the results of the quantification of three independent experiments. Statistical significance of treated vs. vehicle (DMSO) samples (*P≤0.05) was determined by Student's t-test. Expression of indicated NOTCH1 target genes HesI (panel d) and Dtx1 (panel e) in murine NOTCH1 L1601P ΔPEST expressing leukemia lymphoblasts treated with 10 μM JQ-FT for 24 hours was determined by qRT-PCR. Error bars indicate the mean±SD of 3 replicates. Data were analyzed using the ΔΔCT method and plotted as a percentage relative to the control gene Gapdh. Statistical significance for treated vs. vehicle (DMSO) (*P≤0.05) was determined by Student's t-test. […] The spleen and the liver of all mice were examined; representative results for one control animal and one JQ-FT-treated animal are shown. Formalin-fixed, paraffin-embedded tissue sections were stained using the hematoxylin and eosin stain (H & E) method. […] Anti-leukemic activity of JQ-FT was assessed by measuring spleen weight upon 5 days of JQ-FT treatment (60 mg/kg I.P) or vehicle (65% D5W+30% PEG-400+5% Tween-80only). […] Statistical significance for treated vs. vehicle (*P≤0.05) was determined by non-parametric t-test (Mann-Whitney). […] Error bars indicate mean±SD of 4 replicates (of the 4 animals of each group). Statistical significance for treated vs. vehicle (*P≤0.05) was determined by non-parametric t-test (Mann-Whitney). […] The immunoblot contains splenic cell lysates stained with anti-ICN1 antibody (Val1744) after treatment with the 60 mg/Kg of JQ-FT for 5 days. GAPDH was used as a loading control. ICN1 loss was quantified and bar graph (j) corresponds to the results of the quantification. Statistical significance for treated vs. vehicle (*P≤0.05) was determined by Student's t-test.
In vitro studies provide valuable mechanistic insights but may not recapitulate tumor micro-environment and metabolic conditions in vivo. Indeed, a significant limitation of research on folate-conjugate drugs is the inconsistency between free folate concentrations (and other middle metabolites) in culture conditions in vitro versus in vivo. High levels of free folic acid in the sera may block the binding and uptake of JQ-FT in FR2-positive T-ALL compromising the anti-NOTCH1 leukemia effect observed in vitro. To explore the therapeutic efficacy of JQ-FT in vivo, we studied effects on a syngeneic T-ALL mouse model carrying a NOTCH1 L1601P ΔPEST, a common mutation observed in the human disease. First, leukemia cells obtained from this model were treated with JQ-FT for 24 hours in vitro.
Though the JQ-FT conjugate has not, as yet, been optimized for pharmacologic properties, we are eager to explore the utility of the compound as an in vivo chemical probe, while assessing putative tolerability of folate-conjugated thapsigargins. We first established the maximal tolerated dose (MTD) of JQ-FT as 60 mg/kg/day in mice, as administered by daily intraperitoneal injection. […]

[2] = system: murine NOTCH1 L1601P ΔPEST expressing leukemia lymphoblasts; test: Ex vivo treatment of murine NOTCH1 L1601P ΔPEST leukemia lymphoblasts; type: cell-based, mouse
Protocol: Viability data is represented as percentage relative to vehicle treatment and errors bars denote mean±SD of 3 replicates. Statistical significance of treated vs. vehicle (DMSO) samples (***P≤0.01; ***P≤0.001) was determined by one-way ANOVA with Bonferroni's correction for multiple comparison testing. […] The immunoblot contains cell lysates stained with anti-ICN1 antibody (Val1744) after treatment with the 10 μM of JQ-FT for 24 hours in vitro. GAPDH was used as a loading control ICN1 loss was quantified and bar graph (panel e) corresponds to the results of the quantification of three independent experiments. Statistical significance of treated vs. vehicle (DMSO) samples (*P≤0.05) was determined by Student's t-test. Expression of indicated NOTCH1 target genes HesI (panel d) and Dtx1 (panel e) in murine NOTCH1 L1601P ΔPEST expressing leukemia lymphoblasts treated with 10 μM JQ-FT for 24 hours was determined by qRT-PCR. Error bars indicate the mean±SD of 3 replicates. Data were analyzed using the ΔΔCT method and plotted as a percentage relative to the control gene Gapdh. Statistical significance for treated vs. vehicle (DMSO) (*P≤0.05) was determined by Student's t-test. […] The spleen and the liver of all mice were examined; representative results for one control animal and one JQ-FT-treated animal are shown. Formalin-fixed, paraffin-embedded tissue sections were stained using the hematoxylin and eosin stain (H & E) method. […] Anti-leukemic activity of JQ-FT was assessed by measuring spleen weight upon 5 days of JQ-FT treatment (60 mg/kg I.P) or vehicle (65% D5W+30% PEG-400+5% Tween-80only). […] Statistical significance for treated vs. vehicle (*P≤0.05) was determined by non-parametric t-test (Mann-Whitney). […] Statistical significance for treated vs. vehicle (*P≤0.05) was determined by non-parametric t-test (Mann-Whitney). […] ICN1 loss was quantified and bar graph (j) corresponds to the results of the quantification. Statistical significance for treated vs. vehicle (*P≤0.05) was determined by Student's t-test. […]

T-ALL cell lines = test: T-ALL cell viability / growth (ATP content, Cell-Titer Glo); type: cell-based, human; conditions: for cell growth / proliferation: T-ALL cell lines, 10 μM
Protocol: Thus, cell lines carrying NOTCH1 alleles with HD domain, mutations were more sensitive to Thap-OH than cells with WT NOTCH1 alleles.
As a further test of the idea that JQ-FT acts by preventing NOTCH1 activation in a manner similar to thapsigargin, the NOTCH1-dependent T-ALL cell lines RPMI-8402 were transduced with empty MigRI vector or with ICN1, which lies downstream of the γ-secretase cleavage step in Notch activation. Viral supernatant production and retroviral infections were performed as described for MigRI retroviral vectors (Aster, J. C., et al. “Essential roles for ankyrin repeat and transactivation domains in induction of T-cell leukemia by NOTCH1.” Mol. Cell. Biol. 2000; 20:7505-7515). Transduction efficiency for MigRI was monitored by assessing GFP expression with a FACScan flow cytometer (BD, Franklin Lakes, N.J., USA) (Aster et al., Mol. Cell. Biol. 2000; 20:7505-7515). After viral infection, GFP-positive cells were sorted by flow cytometry with a FACSAria II (BD, Franklin Lakes, N.J., USA). […] Therefore, JQ-FT can recapitulate the Thapsigargin effect with the delivery mechanism of folate.
The NOTCH loss was measured via flow cytometry. […] The recapitulation of the thapsigargin effect by JQ-FT is hypothesized to be due to the delivery strategy introduced by folate. […] Here cell growth was assessed using the Promega Cell-Titer Glo ATP-based assay (Promega, Madison, Wis., USA). Luminescence was measured using a Fluostar Omega instrument (BMG-labtech, Ortenberg, Germany).
The effects of JQ-FT in a panel of T-ALL cell lines that contain activating mutations in the HD domain of NOTCH1 and/or protein stabilizing deletions within the PEST degradation domain.

[3] = LCMS analysis of cell lysate and media; type: in vitro ADME; conditions: 24 h treatment with FT
Protocol: In order to validate the delivery of the Thap-OH, LCMS analysis of the cell lysate and the media was used to detect the presence of both Folate-Thap (FT) and Thap-OH. […] To directly visualize the folate delivery of a small molecule, folic acid derivatives with appended fluorophores were designed. Both Folate-FITC, suitable for flow cytometry studies, and Folate-TMARA, suitable for high-throughput fluorescence plate readers, were evaluated in vitro to determine the delivery mechanism.

panel of cell lines = test: Apoptosis luminescence assay (Caspase) in a panel of cell lines; type: cell-based; conditions: 384-well plates, 72 hours
Protocol: Cells were grown in 384-well plates and treated for 72 hours with the indicated dose of Folate-Thap. Apoptosis was measured using a luminescence assay developed by Promega.

What does the source list for `C/C=C(/C)C(=O)O[C@H]1C(C)=C2C([C@@H]1OC(=O)CCCCCCC)[C@@](C)(OC(C)=O)C[C@H](OC(=O)CC[C@H](NC(=O)c1ccc(NCc3cnc4nc(N)[nH]c(=O)c4n3)cc1)C(=O)O)[C@@]1(O)[C@H]2OC(=O)[C@@]1(C)O` (stereo partly shown) [JQ-FT]?
bone marrow infiltration by T-ALL (GFP+ leukemia cells) ([1]; 60 mg/kg IP daily, five days): markedly inhibited; leukemic infiltration in spleen and liver (histology) ([1]; 60 mg/kg IP daily, five days): decrease of leukemic infiltration in spleen and liver; also recorded: Growth suppression of lymphoblasts; spleen weight ([1]; 60 mg/kg IP daily, five days): reduction in spleen weight; tumor growth ([1]; 60 mg/kg IP daily, five days): evident decrease in tumor growth; ICN1 expression in T-ALL cells from treated animals ([1]; 60 mg/kg, 5 days, splenic cell lysates, vs vehicle): reduced ICN1 expression; ICN1 expression in murine leukemia cells ([2]; 10 μM JQ-FT, 24 hours): diminished; transcription of NOTCH1 targets Hes1 and Dtx1 ([2]; 10 μM JQ-FT, 24 hours): diminished; proliferation of murine leukemia cells ([2]; ex vivo treatment with JQ-FT): diminished the proliferation; rescue of loss of viability by exogenous ICN1 (T-ALL cell lines; RPMI 8402 transduced with MigR1-ICN1 vs empty vector): overexpressing an exogenous ICN1 partially rescues the observed phenotype; also recorded: attenuated the growth inhibitory effects of JQ-FT; cell growth / proliferation (T-ALL cell lines): impaired cell growth; cell growth / proliferation (T-ALL cell lines; listed as Folate-Thap): antiproliferation effect; also recorded: arrest of cell proliferation; detection of the conjugate in cell culture media and cell lysate [3]: not detected in either cell culture media (24 h treatment) or cell lysate; apoptosis as measured by Caspase (panel of cell lines): apoptotic effect
